Read-outs that look alike come from different tables or passages of the source.
Key:
[1] = LD50 / toxicity, mice with 7-days Ehrlich ascitic tumor; format: in vivo; details: for LD50: mouse, in vivo
[2] = test system: Liver; test: In vivo biosynthesis of DNA, RNA and protein in liver; design: species or system mice; details: for Incorporation of 2-^14 C-leucine in protein / Incorporation of 2-^14 C-thymidine in DNA: intraperitoneal 100 mg/kg; for inhibition at 100 mg/kg: Mus musculus, three hours
Experimental: (§1) The influence of giniquine on biosynthetic processes in the in vivo tests was studied on common white mice of a mass of 25-35 g with Ehrlich ascitic tumor.
(§2) The mice were divided into two groups. The animals in the first group were given a single injection of the preparation in differing doses, and the animals in the second group were treated with distilled water. Three series of experiments were conducted. In the first series of tests (16 mice) the preparation was injected in a dose of 100 mg/kg ([…] dose), and the animals were decapitated one hour after the injection; in the second test series (16 mice) the animals were slaughtered 3 hours after the injection with other conditions being the same. In the third test series (35 mice) the influence of giniquine on plastic metabolism in tumor cells and normal tissues was studied 24 hours after the injection of a 0.33% solution of the preparation in a dose of 28 mg/kg (therapeutical dose).
(§3) Labeled precursors of nucleic acids and protein were injected intraperitoneally one hour before the slaughter of the animals (50 μc/100 g). Ascitic fluid, as well as liver and spleen, mucous membrane of small intestine, brain, kidneys and lungs were taken for analysis. 10% suspension was prepared from tumor cells, and 10% homogenates were prepared from tissues in a physiological solution.
(§4) Tumor cells and tissue homogenates for precipitation of nucleic acids were treated with 57% perchloric acid (10:1). Acid-soluble fraction was removed by washing the precipitate twice with 5 ml of 5% perchloic acid with subsequent centrifuging at 2000 g. Nucleic acids were hydrolyzed by the Schneider method. Radioactivity of DNA and RNA fractions was measured by means of a liquid scintillation counter. The quantity of DNA and RNA was determined by spectrophotometry: the quantity of DNA was determined with diphenylamine, and RNA- with orcin.
(§5) To prepare protein hydrolysate, the suspension of tumoral cells and homogenates of normal tissues were treated with cool 10% trichloracetic acid (1:4), with subsequent centrifuging at 2000 g for ten minutes. The precipitate was washed twice with 5 ml of 10% trichloracetic acid. Lipoids were removed by a consecutive treatment of the precipitate with ethanol, saturated solution of sodium acetate, a mixture of ethanol and ether (3:1) and ether. To prepare protein hyhdrolysate, 4 ml of 0.3N KOH were added to the precipitate, and the mixture was placed into a thermostatic chamber at 37° C. for 60 minutes. The radioactivity was measured by means of a liquid scintillation counter. Protein was quantitatively determined by spectrophotometry using a microbiuret reaction.

[3] = test system: La hemocytoblastosis; test: Antitumor activity, La hemocytoblastosis; format: in vivo, mice
Experimental: (§6) Apart from the tests on Ehrlich ascitic tumor, giniquine was studied on twelve more inoculated tumors. Seven tumors (melanoma B16, sarcoma AK, large intestine carcinoma acatol-1, sarcoma 180, adenocarcinoma 755, Lewis lung carcinoma and sarcoma 37) were inoculated subcutaneously with 50 mg of tumoral cells per mouse. Four tumors (lymphatic leukemies L 5178, L 5178Y, L 1210 and P-388) were inoculated intraperitoneally with 10^6 cells per mouse. One tumor (La, hemocytoblastosis) was inoculated intraperitoneally by injecting 50 mg of cell suspension of spleen and liver of mice suffering La hemocytoblastosis, per mouse. Giniquine was injected intraperitoneally five times for seven days: 1,2,3,4,7 days or 3,4,5,6,7 days after the implantation of tumor. The rate of deceleration of the tumor growth was established 14 days after the ultimate injection of giniquine; life of test animals was recorded for 60 days.

[4] = test system: lymphatic leukemia L 5178; test: Antitumor activity, life prolongation, lymphatic leukemia L 5178; format: in vivo, mice
Experimental: as §6

[5] = LD50, intact mice; details: mouse, in vivo, ip, intraperitoneal
[6] = test system: Brain; test: In vivo biosynthesis of DNA, RNA and protein in brain; design: species or system mice; details: 24 hours, intraperitoneal 28 mg/kg
Experimental: as §1, §2, §3
(§7) Tumor cells and tissue homogenates for precipitation of nucleic acids were treated with 57% perchloric acid (10:1). […] Radioactivity of DNA and RNA fractions was measured by means of a liquid scintillation counter. The quantity of DNA and RNA was determined by spectrophotometry: the quantity of DNA was determined with diphenylamine, and RNA- with orcin.
(§8) To prepare protein hydrolysate, the suspension of tumoral cells and homogenates of normal tissues were treated with cool 10% trichloracetic acid (1:4), with subsequent centrifuging at 2000 g for ten minutes. […] The radioactivity was measured by means of a liquid scintillation counter. Protein was quantitatively determined by spectrophotometry using a microbiuret reaction.

[7] = test system: Kidneys; test: In vivo biosynthesis of DNA, RNA and protein in kidneys; design: species or system mice; details: 24 hours, intraperitoneal 28 mg/kg
Experimental: as §1, §2, §3, §7, §8

[8] = test system: Spleen; test: In vivo biosynthesis of DNA, RNA and protein in spleen; design: species or system mice; details: for Incorporation of 2-^14 C-leucine in protein / Incorporation of 2-^14 C-thymidine in DNA: intraperitoneal 100 mg/kg
Experimental: as §1, §2, §3, §4, §5

[9] = test system: Tumor cells (Ehrlich ascitic tumor); test: In vivo biosynthesis of DNA, RNA and protein in tumor cells; design: species or system mice; details: for Incorporation of 2-^14 C-leucine in protein / Incorporation of 2-^14 C-thymidine in DNA: intraperitoneal 100 mg/kg; for inhibition at 100 mg/kg: Mus musculus, Ehrlich
Experimental: as §1, §2, §3, §4, §5

[10] = test system: lymphatic leukemia P-388; test: Antitumor activity, lymphatic leukemia P-388; format: in vivo, mice
Experimental: as §6

[11] = test system: Mucous membrane of small intestine; test: In vivo biosynthesis of DNA, RNA and protein in mucous membrane of small intestine; design: species or system mice; details: 24 hours, intraperitoneal 28 mg/kg
Experimental: as §1, §2, §3, §7, §8

[12] = test system: sarcoma 37; test: Antitumor activity, life prolongation, sarcoma 37; format: in vivo, mice
Experimental: as §6

[13] = test system: sarcoma AK; test: Antitumor activity, sarcoma AK; format: in vivo, mice
Experimental: as §6

[14] = 24 hours, intraperitoneal 28 mg/kg

Structure (SMILES): CCN(CC)CCCC(C)NC(=O)c1cc(C=Cc2ccc([N+](=O)[O-])o2)nc2ccccc12 (stereo not drawn) [giniquine, 2-[2'-(5"-nitrofuryl-2")vinyl]quinoline-4-carboxylic acid (α-methyl-δ-diethylaminobutyl)amide triphosphate]
- toxicity compared to intraperitoneal injection ([1]; intravenous injection): five times greater
- LD50 ([1]; ip, intraperitoneal, ten injections, female): 10 mg/kg
- LD50 ([1]; ip, intraperitoneal, ten injections, male): 7 mg/kg
- LD50 ([1]; iv, single injection, female): 17.5 mg/kg
- LD50 ([1]; iv, single injection, male): 20 mg/kg
- Incorporation of 2-^14 C-leucine in protein ([2]; 1 h): 127.0 % of control
- Incorporation of 2-^14 C-thymidine in DNA ([2]; 1 h): 106.0 % of control
- Incorporation of 2-^14 C-leucine in protein ([2]; 3 h): 96.0 % of control
- Incorporation of 2-^14 C-thymidine in DNA ([2]; 3 h): 93.0 % of control
- Incorporation of specific precursors, DNA [2, 14]: 190.0 % of control
- Incorporation of specific precursors, Protein [2, 14]: 112.0 % of control
- Incorporation of specific precursors, RNA [2, 14]: 124.0 % of control
- inhibition at 100 mg/kg ([2]; 3 h, 100 mg/kg, read-out: inhibition of biosynthesis of DNA): 7%
- inhibition at 100 mg/kg ([2]; 3 h, 100 mg/kg, read-out: inhibition of biosynthesis of protein): 4%
- inhibition of biosynthesis of protein (in words) ([2]; one hour, 100 mg/kg): not observed or inappreciable
- stimulation of biosynthesis of DNA ([2]; one hour, 100 mg/kg): 6%
- Max. life prolong. ([3]; C57 BL/6Y female mice, intraperitoneal, days 1,2,3,4,7, optimum daily dose 10.0 mg/kg): 5%
- antitumor effect / sensitivity (in words) ([3]; La hemocytoblastosis): practically insensitive
- Max. life prolong. ([4]; common female mice, intraperitoneal, days 1,2,3,4,7, optimum daily dose 10.0 mg/kg): 30%
- antiblastic activity / sensitivity (in words) ([4]; lymphatic leukemia L 5178): slight antitumor effect
- LD50 ([5]; single injection, female): 33 mg/kg
- LD50 ([5]; single injection, male): 30 mg/kg
- LD50 ([5]; ten injections, female): 8 mg/kg
- LD50 ([5]; ten injections, male): 7.3 mg/kg
- Incorporation of specific precursors, DNA [6]: 125.0 % of control
- Incorporation of specific precursors, Protein [6]: 105.0 % of control
- Incorporation of specific precursors, RNA [6]: 124.0 % of control
- Incorporation of specific precursors, DNA [7]: 178.0 % of control
- Incorporation of specific precursors, Protein [7]: 105.0 % of control
- Incorporation of specific precursors, RNA [7]: 148.0 % of control
- Incorporation of 2-^14 C-leucine in protein ([8]; 1 h): 97.0 % of control
- Incorporation of 2-^14 C-thymidine in DNA ([8]; 1 h): 120.0 % of control
- Incorporation of 2-^14 C-leucine in protein ([8]; 3 h): 40.0 % of control
- Incorporation of 2-^14 C-thymidine in DNA ([8]; 3 h): 116.0 % of control
- Incorporation of specific precursors, DNA [8, 14]: 330.0 % of control
- Incorporation of specific precursors, Protein [8, 14]: 93.0 % of control
- Incorporation of specific precursors, RNA [8, 14]: 162.0 % of control
- inhibition at 100 mg/kg ([8]; Mus musculus, 3 h, three hours, 100 mg/kg): 60%
- inhibition of biosynthesis of protein (in words) ([8]; one hour, 100 mg/kg): not observed or inappreciable
- stimulation of biosynthesis of DNA ([8]; one hour, 100 mg/kg): 20%
- stimulation of biosynthesis of DNA ([8]; three hours, 100 mg/kg): 16%
- Incorporation of 2-^14 C-leucine in protein ([9]; 1 h): 59.0 % of control
- Incorporation of 2-^14 C-thymidine in DNA ([9]; 1 h): 43.0 % of control
- Incorporation of 2-^14 C-leucine in protein ([9]; 3 h): 14.0 % of control
- Incorporation of 2-^14 C-thymidine in DNA ([9]; 3 h): 30.0 % of control
- suppression of incorporation of 2-^14 C-thymidine in DNA ([9]; 24 hours, 28 mg/kg): 82%
- suppression of incorporation of 2-^14 C-uridine in RNA ([9]; 24 hours, 28 mg/kg): 42%
- Incorporation of specific precursors, DNA [9, 14]: 18.0 % of control
- Incorporation of specific precursors, Protein [9, 14]: 54.0 % of control
- Incorporation of specific precursors, RNA [9, 14]: 58.0 % of control
- inhibition at 100 mg/kg ([9]; 1 h, one hour, 100 mg/kg, read-out: inhibition of biosynthesis of DNA): 57%
- inhibition at 100 mg/kg ([9]; 3 h, three hours, 100 mg/kg, read-out: inhibition of biosynthesis of DNA): 70%
- inhibition at 100 mg/kg ([9]; 3 h, three hours, 100 mg/kg, read-out: inhibition of biosynthesis of protein): 86%
- biosynthesis processes in tumor cells (in words) ([9]; in vivo): the same effect on biosynthesis processes in tumor cells
- suppression of biosynthesis of protein ([9]; one hour, 100 mg/kg): 41%
- sensitivity (in words) ([10]; P-388): practically insensitive
- Max. life prolong. ([10]; printed B-388, BDF1 female mice, intraperitoneal, days 1,2,3,4,7, optimum daily dose 10.0 mg/kg): 12%
- Incorporation of specific precursors, DNA [11]: 386.0 % of control
- Incorporation of specific precursors, Protein [11]: 122.0 % of control
- Incorporation of specific precursors, RNA [11]: 158.0 % of control
- Max. life prolong. ([12]; common female mice, intraperitoneal, days 1,2,3,4,7, daily doses 6.0-28.0 mg/kg, optimum daily dose 0): 0%
- antiblastic activity / sensitivity (in words) ([12]; sarcoma 37): practically insensitive
- Deceleration of tumor growth ([13]; common female mice, intraperitoneal, days 3,4,5,6,7, optim. daily dose 2.2 mg/kg): 46%
- Max. prolongation of life ([13]; common female mice, intraperitoneal, days 3,4,5,6,7, optim. daily dose 10.0 mg/kg): 15%
- antitumor effect (in words) ([13]; sarcoma AK): slight antitumor effect
